The text below walks through data of article PMC11649909 (Nature Communications, 2024).

Changes are numbered by the printed parent chain.

Experiment in all cases: SPR
What all share (type): binding

Assay [1] concerns the target T1, ADIPOR2 (adiponectin receptor 2) (Homo sapiens, UniProt Q86V24).
T1 sequence (Q86V24 1-386): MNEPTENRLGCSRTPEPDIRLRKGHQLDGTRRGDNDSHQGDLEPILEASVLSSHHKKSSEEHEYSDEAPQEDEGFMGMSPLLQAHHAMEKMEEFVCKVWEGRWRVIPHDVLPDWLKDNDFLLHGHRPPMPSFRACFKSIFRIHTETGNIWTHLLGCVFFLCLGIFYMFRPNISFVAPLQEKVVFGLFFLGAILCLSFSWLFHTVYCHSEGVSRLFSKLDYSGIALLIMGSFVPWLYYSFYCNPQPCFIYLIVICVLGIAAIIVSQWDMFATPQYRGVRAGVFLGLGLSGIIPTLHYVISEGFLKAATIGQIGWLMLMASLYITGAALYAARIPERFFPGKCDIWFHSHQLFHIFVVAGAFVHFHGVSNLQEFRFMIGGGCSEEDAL

A further assay deals with T2, ADIPOR2 R335A (Homo sapiens, UniProt Q86V24, R335A).
T2 sequence (Q86V24 1-386 R335A): T1 sequence (Q86V24 1-386) with R335A

The target in another assay is T3, ADIPOR2 R331A (Homo sapiens, UniProt Q86V24, R331A).
T3 sequence (Q86V24 1-386 R331A): T1 sequence (Q86V24 1-386) with R331A

What is called Kd is the free concentration of one partner at which half of the binding sites on the other are occupied at equilibrium, for simple one-to-one binding. Low readings indicate higher affinity, high ones lower affinity.

With `COc1cc(C(=O)OCCCCNC(=N)N)cc(OC)c1O` [SCM-198], the Kd was determined as 1.99 µM in assay [1], 50.1 µM at ADIPOR2 R335A and 9.92 µM on ADIPOR2 R331A.
